Test results from US6737383B1, “Herbicidal oxadiazolidines” (priority 1999, dated 2004).

Assays:
[1] = test system: bedstraw; assay: Test B pre/postemergence bedstraw; format: in vivo, Galium aparine
How it was run: (§1)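 Response is a visual 0-to-10 score relative to untreated plants, where 0 means no effect and 10 means complete control, taken twelve to sixteen days after application. Treatments went onto soil at planting and onto foliage of 1- to 4-leaf plants, using a surfactant-containing non-phytotoxic solvent.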

[2] = test system: pigweed; assay: Test B pre/postemergence pigweed; format: in vivo, Amaranthus retroflexus
How it was run: as §1

[3] = test system: soybean; assay: Test B pre/postemergence soybean; format: in vivo, Glycine max
How it was run: as §1

[4] = test system: purple nutsedge; assay: Test B pre/postemergence purple nutsedge; format: in vivo, Cyperus rotundus
How it was run: as §1

[5] = test system: crabgrass; assay: Test B pre/postemergence crabgrass; format: in vivo, Digitaria sanguinalis
How it was run: as §1

[6] = test system: blackgrass; assay: Test B pre/postemergence blackgrass; format: in vivo, Alopecurus myosuroides
How it was run: as §1

[7] = test system: giant foxtail; assay: Test B pre/postemergence giant foxtail; format: in vivo, Setaria faberii
How it was run: as §1

[8] = test system: cocklebur; assay: Test B pre/postemergence cocklebur; format: in vivo, Xanthium strumarium
How it was run: as §1

[9] = test system: wild oat; assay: Test B pre/postemergence wild oat; format: in vivo, Avena fatua
How it was run: as §1

[10] = test system: sugar beet; assay: Test B pre/postemergence sugar beet; format: in vivo, Beta vulgaris
How it was run: as §1

[11] = test system: corn; assay: Test B pre/postemergence corn; format: in vivo, Zea mays
How it was run: as §1

[12] = test system: rape; assay: Test B pre/postemergence rape; format: in vivo, Brassica napus
How it was run: as §1

[13] = test system: surinam grass; assay: Test B pre/postemergence surinam grass; format: in vivo, Brachiaria decumbens
How it was run: as §1

[14] = test system: wheat; assay: Test B pre/postemergence wheat; format: in vivo, Triticum aestivum
How it was run: as §1

[15] = test system: velvetleaf; assay: Test B pre/postemergence velvetleaf; format: in vivo, Abutilon theophrasti
How it was run: as §1

[16] = test system: morningglory; assay: Test B pre/postemergence morningglory; format: in vivo, Ipomoea hederacea
How it was run: as §1

[17] = Postemergence, Rate 62 g/ha, scale 0 to 10, 0 is no effect, 10 is complete control
[18] = Postemergence, Rate 500 g/ha, scale 0 (no effect) to 10 (complete control)
[19] = Rate 125 g/ha, Preemergence, scale 0 to 10 (0 no effect, 10 complete control)
[20] = Rate 250 g/ha, Postemergence, scale 0 to 10, 0 is no effect, 10 is complete control
[21] = Postemergence, Rate 125 g/ha, scale of 0 to 10 where 0 is no effect and 10 is complete control
[22] = Rate 62 g/ha, Preemergence, scale 0 to 10
[23] = Rate 500 g/ha, Preemergence, scale 0 to 10 (0 no effect, 10 complete control)
[24] = Preemergence, Rate 250 g/ha, scale 0 (no effect) to 10 (complete control)

CC(C)N(C(=O)n1oc(=O)n(CCCCCl)c1=O)c1ccc(Cl)cc1 [Compound 791]
9: Crabgrass plant response rating [5, 18] | Crabgrass plant response rating [5, 20] | Giant foxtail plant response rating [7, 18] | Morningglory plant response rating [16, 18] | Morningglory plant response rating [16, 20]
0: Plant response rating, Bedstraw [1, 17] | Bedstraw plant response rating [1, 19] | Redroot pigweed plant response rating [2, 22] | Redroot pigweed plant response rating [2, 19] | Plant response rating, Nutsedge [4, 17] | Nutsedge plant response rating [4, 21] | Nutsedge plant response rating [4, 18] | Nutsedge plant response rating [4, 22] | Nutsedge plant response rating [4, 19] | Nutsedge plant response rating [4, 20] | Nutsedge plant response rating [4, 23] | Plant response rating, Blackgrass [6, 17] | Blackgrass plant response rating [6, 22] | Blackgrass plant response rating [6, 19] | Plant response rating, Giant foxtail [7, 17] | Plant response rating, Cocklebur [8, 17] | Cocklebur plant response rating [8, 21] | Cocklebur plant response rating [8, 24] | Cocklebur plant response rating [8, 22] | Cocklebur plant response rating [8, 19] | Cocklebur plant response rating [8, 20] | Cocklebur plant response rating [8, 23] | Plant response rating, Wild oats [9, 17] | Wild oats plant response rating [9, 18] | Wild oats plant response rating [9, 22] | Wild oats plant response rating [9, 19] | Wild oats plant response rating [9, 20] | Plant response rating, Sugarbeets [10, 17] | Sugarbeets plant response rating [10, 22] | Sugarbeets plant response rating [10, 19] | Plant response rating, Corn [11, 17] | Corn plant response rating [11, 21] | Corn plant response rating [11, 24] | Corn plant response rating [11, 22] | Corn plant response rating [11, 19] | Corn plant response rating [11, 23] | Rape plant response rating [12, 22] | Rape plant response rating [12, 19] | Plant response rating, B. signalgrass [13, 17] | B. signalgrass plant response rating [13, 21] | B. signalgrass plant response rating [13, 24] | B. signalgrass plant response rating ([13]; Rate 62 g/ha, Preemergence, scale 0 (no effect) to 10 (complete control)) | B. signalgrass plant response rating [13, 19] | B. signalgrass plant response rating [13, 20] | B. signalgrass plant response rating ([13]; Rate 500 g/ha, Postemergence, scale 0 to 10, 0 is no effect, 10 is complete control) | Plant response rating, Wheat [14, 17] | Wheat plant response rating [14, 18] | Wheat plant response rating [14, 22] | Wheat plant response rating [14, 19] | Wheat plant response rating [14, 20] | Velvetleaf plant response rating [15, 22] | Velvetleaf plant response rating [15, 19] | Velvetleaf plant response rating [15, 23] | Morningglory plant response rating [16, 22] | Morningglory plant response rating [16, 19] | Morningglory plant response rating [16, 23]
3: Bedstraw plant response rating [1, 18] | Bedstraw plant response rating [1, 20] | Plant response rating, Rape [12, 17] | Rape plant response rating [12, 21] | Plant response rating, Morningglory [16, 17] | Morningglory plant response rating [16, 21]
5: Soybean plant response rating [3, 18] | Soybean plant response rating [3, 20] | Soybean plant response rating [3, 23] | Blackgrass plant response rating [6, 20] | Cocklebur plant response rating [8, 18] | Sugarbeets plant response rating [10, 18] | Rape plant response rating [12, 20]
1: Plant response rating, Crabgrass [5, 17] | Corn plant response rating [11, 18] | Corn plant response rating [11, 20]
2: Plant response rating, Redroot pigweed [2, 17] | Blackgrass plant response rating [6, 21] | Giant foxtail plant response rating [7, 21] | Sugarbeets plant response rating [10, 20] | Plant response rating, Velvetleaf [15, 17]
7: Blackgrass plant response rating [6, 24]
4: Plant response rating, Soybean [3, 17] | Soybean plant response rating [3, 22] | Soybean plant response rating [3, 19] | Crabgrass plant response rating [5, 21]
8: Redroot pigweed plant response rating [2, 18] | Giant foxtail plant response rating [7, 20]
6: Redroot pigweed plant response rating [2, 21] | Redroot pigweed plant response rating [2, 20] | Crabgrass plant response rating [5, 22] | Crabgrass plant response rating [5, 19] | Blackgrass plant response rating [6, 18] | Rape plant response rating [12, 18] | Velvetleaf plant response rating [15, 18] | Velvetleaf plant response rating [15, 20]
10: Crabgrass plant response rating [5, 24] | Crabgrass plant response rating [5, 23] | Giant foxtail plant response rating [7, 24] | Giant foxtail plant response rating [7, 22] | Giant foxtail plant response rating [7, 19] | Giant foxtail plant response rating [7, 23]
